According to ChEMBL document CHEMBL1781930, “Facile transformation of Biginelli pyrimidin-2(1H)-ones to pyrimidines. In vitro evaluation as inhibitors of Mycobacterium tuberculosis and modulators of cytostatic activity” (Eur J Med Chem, 2011):
Values after ≈ are worked out from the molar mass of the structure shown. Active and inactive are the calls of the source. The rule behind the calls is not given here.

Legend:
[1] = test system: Human immunodeficiency virus; experiment: Antiviral activity against HIV at subtoxic concentration; format: functional, organism-based
[2] = test system: Mycobacterium tuberculosis; experiment: Antimycobacterial activity against Mycobacterium tuberculosis H37Rv ATCC 27294 after 7 days by microplate alamar blue assay; format: functional; settings: H37Rv ATCC 27294, 168 h
L1210 = experiment: Cytostatic activity against mouse L1210 cells assessed as inhibition of cell proliferation after 2 days by particle counter assay; format: functional, cell-based; settings: L1210, 48 h
FM3A = experiment: Cytostatic activity against mouse FM3A cells assessed as inhibition of cell proliferation after 2 days by particle counter assay; format: functional, cell-based; settings: 48 h
CCRF-CEM = experiment: Cytostatic activity against human CEM cells assessed as inhibition of cell proliferation after 3 days by particle counter assay; format: functional, cell-based; settings: 72 h
HeLa = experiment: Cytostatic activity against human HeLa cells assessed as inhibition of cell proliferation after 3 days by particle counter assay; format: functional, cell-based; settings: 72 h
[3] = test system: Mycobacterium tuberculosis; experiment: Antimycobacterial activity against Mycobacterium tuberculosis H37Rv ATCC 27294 at […] after 7 days by microplate alamar blue assay; format: functional; settings: H37Rv ATCC 27294, 168 h
[4] = Cytotoxicity against cat CRFK cells; format: cell-based, Felis catus
[5] = Cytotoxicity against human embryonic lung cells; format: cell-based

Compound	Activity [1]	MIC [2]	IC50 (L1210)	IC50 (FM3A)	IC50 (CCRF-CEM)	IC50 (HeLa)	also measured
CCOC(=O)c1c(C)nc(Cl)nc1-c1ccccc1	inactive	–	–	–	–	–	–
COc1c(N2C[C@@H]3CCCN[C@@H]3C2)c(F)cc2c(=O)c(C(=O)O)cn(C3CC3)c12 [MOXIFLOXACIN]	–	0.47 µM (≈ 0.189 µg/mL)	–	–	–	–	–
O=[N+]([O-])c1cn2c(n1)OC[C@@H](OCc1ccc(OC(F)(F)F)cc1)C2 [PRETOMANID]	–	0.48 µM (≈ 0.172 µg/mL)	–	–	–	–	–
NNC(=O)c1ccncc1 [ISONIAZID]	–	0.12 µM (≈ 0.0165 µg/mL)	–	–	–	–	–
CCOC(=O)c1c(C)nc(NCCc2c[nH]c3ccccc23)nc1-c1ccccc1	inactive	–	28 µM	34 µM	31 µM	23 µM	–
CCOC(=O)c1cnc(NCc2ccccc2)nc1C	inactive	–	378 µM	306 µM	480 µM	147 µM	–
CCOC(=O)c1c(C)nc(N2CCOCC2)nc1-c1ccccc1	inactive	125 µM (≈ 41 µg/mL)	> 500 µM	> 500 µM	≥ 500 µM	≥ 500 µM	inhibition at […] [3]: 96%
COC(=O)c1c(C)nc(NCc2ccccc2)nc1-c1ccccc1	–	–	–	–	–	–	MCC [4]: 4 µg/mL; MCC [5]: 4 µg/mL
COC(=O)c1c(C)nc(Cl)nc1-c1ccccc1	inactive	–	–	–	–	–	–
